Results on 13 compounds are retold here after patent US10961278B2, “Vancomycin derivative, preparation method, pharmaceutical composition and use thereof” (SHANGHAI INSTITUTE OF MATERIA MEDICA, CHINESE ACADEMY OF …, priority 2016, dated 2021).

Converted amounts (≈) assume the structure as drawn. Like-named read-outs stand apart in the source and are kept apart here.

The test system of assay [1] is vancomycin-middle resistant Staphylococcus aureus Mu50 strain. Briefly: In vitro antibacterial activity assay (MIC, CLSI dilution method). As to conditions: 16 h; for MIC: Staphylococcus aureus, read-out: MIC Mu50. In kind it is cell-based.
The test system of assay [2] is vancomycin-sensitive Staphylococcus aureus Newman strain. Described as above. In kind it is cell-based. As to conditions: 16 h, S. aureus Newman, 37° C.; for MIC: Staphylococcus aureus.

What is called MIC is the lowest concentration that inhibits growth of the organism. For the compound `CCCCCCCCCCNCCNC1(C)C[C@H](O[C@H]2C(Oc3c4cc5cc3Oc3ccc(cc3Cl)[C@@H](O)[C@@H](NC(=O)[C@@H](CC(C)C)NC)C(=O)N[C@@H](CC(N)=O)C(=O)N[C@H]5C(=O)N[C@H]3C(=O)N[C@H](C(=O)N[C@H](C(=O)O)c5cc(O)c(CNCCOC6OC(CO)[C@@H](O)C(O)C6O)c(O)c5-c5cc3ccc5O)[C@H](O)c3ccc(c(Cl)c3)O4)O[C@H](CO)C(O)C2O)OC(C)[C@H]1O` (some centres unmarked) [Van001], the MIC in assay [1] (S. aureus Mu50, 37° C.) came to 2 µg/mL (≈ 1.07 µM); in assay [2] (NEWMAN) it was 1 µg/mL (≈ 0.535 µM).
Turning to `CCCCCCCCCCNCCNC1(C)C[C@H](O[C@H]2C(Oc3c4cc5cc3Oc3ccc(cc3Cl)[C@@H](O)[C@@H](NC(=O)[C@@H](CC(C)C)NC)C(=O)N[C@@H](CC(N)=O)C(=O)N[C@H]5C(=O)N[C@H]3C(=O)N[C@H](C(=O)N[C@H](C(=O)O)c5cc(O)c(CNCCO[C@@H]6OC(CO)[C@H](O)C(O)C6O)c(O)c5-c5cc3ccc5O)[C@H](O)c3ccc(c(Cl)c3)O4)O[C@H](CO)C(O)C2O)OC(C)[C@H]1O` (some centres unmarked) [Van002], the MIC in assay [1] (S. aureus Mu50, 37° C.) came to 2 µg/mL (≈ 1.07 µM); in assay [2] (NEWMAN) it was 0.5 µg/mL (≈ 0.268 µM).
Regarding `CCCCCCCCCCNCCNC1(C)C[C@H](O[C@H]2C(Oc3c4cc5cc3Oc3ccc(cc3Cl)[C@@H](O)[C@@H](NC(=O)[C@@H](CC(C)C)NC)C(=O)N[C@@H](CC(N)=O)C(=O)N[C@H]5C(=O)N[C@H]3C(=O)N[C@H](C(=O)N[C@H](C(=O)O)c5cc(O)c(CNCCO[C@@H]6OC(CO)[C@@H](O)C(O)C6NC(C)=O)c(O)c5-c5cc3ccc5O)[C@H](O)c3ccc(c(Cl)c3)O4)O[C@H](CO)C(O)C2O)OC(C)[C@H]1O` (some centres unmarked) [Van003], the MIC in assay [1] (S. aureus Mu50, 37° C.) is 16 µg/mL (≈ 8.38 µM); in assay [2] (NEWMAN), 4 µg/mL (≈ 2.1 µM).
In the same order, the values of `CCCCCCCCCCNCCNC1(C)C[C@H](O[C@H]2C(Oc3c4cc5cc3Oc3ccc(cc3Cl)[C@@H](O)[C@@H](NC(=O)[C@@H](CC(C)C)NC)C(=O)N[C@@H](CC(N)=O)C(=O)N[C@H]5C(=O)N[C@H]3C(=O)N[C@H](C(=O)N[C@H](C(=O)O)c5cc(O)c(CNCCO[C@@H]6OC(CO)[C@@H](O)C(O)C6O)c(O)c5-c5cc3ccc5O)[C@H](O)c3ccc(c(Cl)c3)O4)O[C@H](CO)C(O)C2O)OC(C)[C@H]1O` (some centres unmarked) [Van004] are 4 µg/mL (≈ 2.14 µM) and 1 µg/mL (≈ 0.535 µM).
In the same order, the values of `CCCCCCCCCCNCCNC1(C)C[C@H](O[C@@H]2C(O)C(O)[C@@H](CO)O[C@H]2Oc2c3cc4cc2Oc2ccc(cc2Cl)[C@@H](O)[C@@H](NC(=O)[C@@H](CC(C)C)NC)C(=O)N[C@@H](CC(N)=O)C(=O)N[C@H]4C(=O)N[C@@H]2C(=O)N[C@H](C(=O)N[C@H](C(=O)O)c4cc(O)c(CNCCO)c(O)c4-c4cc2ccc4O)[C@H](O)c2ccc(c(Cl)c2)O3)O[C@@H](C)[C@H]1O` (some centres unmarked) [Van005] are 4 µg/mL (≈ 2.35 µM) and 1 µg/mL (≈ 0.586 µM).
As to `CCCCCCCCCCNCCNC1(C)C[C@H](O[C@@H]2C(O)C(O)[C@@H](CO)O[C@H]2Oc2c3cc4cc2Oc2ccc(cc2Cl)[C@@H](O)[C@@H](NC(=O)[C@@H](CC(C)C)NC)C(=O)N[C@@H](CC(N)=O)C(=O)N[C@H]4C(=O)N[C@@H]2C(=O)N[C@H](C(=O)N[C@H](C(=O)O)c4cc(O)c(CNC5C(O)OC(CO)[C@@H](O)[C@@H]5O)c(O)c4-c4cc2ccc4O)[C@H](O)c2ccc(c(Cl)c2)O3)O[C@@H](C)[C@H]1O` (some centres unmarked) [Van006], in assay [1] (S. aureus Mu50, 37° C.), the “MIC Mu50” value amounted to 32 µg/mL (≈ 17.5 µM). Besides, in assay [2] (NEWMAN), the MIC is 8 µg/mL (≈ 4.39 µM).
For the compound `CCCCCCCCCCNCCNC1(C)C[C@H](O[C@@H]2C(O)C(O)[C@@H](CO)O[C@H]2Oc2c3cc4cc2Oc2ccc(cc2Cl)[C@@H](O)[C@@H](NC(=O)[C@@H](CC(C)C)NC)C(=O)N[C@@H](CC(N)=O)C(=O)N[C@H]4C(=O)N[C@@H]2C(=O)N[C@H](C(=O)N[C@H](C(=O)O)c4cc(O)c(CNC5C(O)OC(CO)[C@@H](O)[C@@H]5O)c(O)c4-c4cc2ccc4O)[C@H](O)c2ccc(c(Cl)c2)O3)O[C@@H](C)[C@H]1O` (some centres unmarked) [Van007], the “MIC Mu50” value in assay [1] (S. aureus Mu50, 37° C.) amounted to 8 µg/mL (≈ 4.39 µM). Also, in assay [2], the “MIC Newman” value turned out to be 4 µg/mL (≈ 2.19 µM).
As to `CCCCCCCCCCNCCNC1(C)C[C@H](O[C@@H]2C(O)C(O)[C@@H](CO)O[C@H]2Oc2c3cc4cc2Oc2ccc(cc2Cl)[C@@H](O)[C@@H](NC(=O)[C@@H](CC(C)C)NC)C(=O)N[C@@H](CC(N)=O)C(=O)N[C@H]4C(=O)N[C@@H]2C(=O)N[C@H](C(=O)N[C@H](C(=O)O)c4cc(O)c(CNC5C(O)OC(CO)[C@H](O)[C@@H]5O)c(O)c4-c4cc2ccc4O)[C@H](O)c2ccc(c(Cl)c2)O3)O[C@@H](C)[C@H]1O` (some centres unmarked) [Van008], the MIC is 0.25 µg/mL (≈ 0.137 µM) in assay [1] (S. aureus Mu50, 37° C.) and at most 0.0625 µg/mL in assay [2] (NEWMAN).
Regarding `CCCCCCCCCCNCCNC1(C)C[C@H](O[C@H]2C(Oc3c4cc5cc3Oc3ccc(cc3Cl)[C@@H](O)[C@@H](NC(=O)[C@@H](CC(C)C)NC)C(=O)N[C@@H](CC(N)=O)C(=O)N[C@H]5C(=O)N[C@H]3C(=O)N[C@H](C(=O)N[C@H](C(=O)O)c5cc(O)c(CNCCCNC(=O)[C@H](O)[C@@H](O)[C@H](O)[C@H](O)CO)c(O)c5-c5cc3ccc5O)[C@H](O)c3ccc(c(Cl)c3)O4)O[C@H](CO)C(O)C2O)OC(C)[C@H]1O` (some centres unmarked) [Van009], the minimum inhibitory concentration (MIC) stood at 1 µg/mL (≈ 0.527 µM) in assay [1] (S. aureus Mu50, 37° C.) and 0.5 µg/mL (≈ 0.264 µM) in assay [2] (NEWMAN).
On to `CCCCCCCCCCNCCNC1(C)C[C@H](O[C@H]2C(Oc3c4cc5cc3Oc3ccc(cc3Cl)[C@@H](O)[C@@H](NC(=O)[C@@H](CC(C)C)NC)C(=O)N[C@@H](CC(N)=O)C(=O)N[C@H]5C(=O)N[C@H]3C(=O)N[C@H](C(=O)N[C@H](C(=O)O)c5cc(O)c(CNCCCNC(=O)[C@H](O)[C@@H](O)[C@H](O[C@@H]6OC(CO)[C@H](O)C(O)C6O)[C@H](O)CO)c(O)c5-c5cc3ccc5O)[C@H](O)c3ccc(c(Cl)c3)O4)O[C@H](CO)C(O)C2O)OC(C)[C@H]1O` (some centres unmarked) [Van010], for which the minimum inhibitory concentration (MIC) in assay [1] (S. aureus Mu50, 37° C.) is 1 µg/mL (≈ 0.486 µM); in assay [2] (NEWMAN), 0.25 µg/mL (≈ 0.121 µM).
As for `CN[C@H](CC(C)C)C(=O)N[C@H]1C(=O)N[C@@H](CC(N)=O)C(=O)N[C@H]2C(=O)N[C@H]3C(=O)N[C@H](C(=O)N[C@H](C(=O)O)c4cc(O)c(CNCCO[C@@H]5OC(CO)[C@H](O)C(O)C5O)c(O)c4-c4cc3ccc4O)[C@H](O)c3ccc(c(Cl)c3)Oc3cc2cc(c3OC2O[C@H](CO)C(O)C(O)[C@H]2O[C@@H]2CC(C)[C@@H](O)C(C)(NCc3ccc(-c4ccc(Cl)cc4)cc3)C2)Oc2ccc(cc2Cl)[C@H]1O` (some centres unmarked) [Van011], the MIC in assay [1] (S. aureus Mu50, 37° C.) is 1 µg/mL (≈ 0.531 µM); in assay [2] (NEWMAN), at most 0.0625 µg/mL.
With `CN[C@H](CC(C)C)C(=O)N[C@H]1C(=O)N[C@@H](CC(N)=O)C(=O)N[C@H]2C(=O)N[C@H]3C(=O)N[C@H](C(=O)N[C@H](C(=O)O)c4cc(O)c(CNCCO[C@H]5OC(CO)[C@@H](O)C(O)C5O)c(O)c4-c4cc3ccc4O)[C@H](O)c3ccc(c(Cl)c3)Oc3cc2cc(c3OC2O[C@H](CO)C(O)C(O)[C@H]2O[C@@H]2CC(C)[C@@H](O)C(C)(NCc3ccc(-c4ccc(Cl)cc4)cc3)C2)Oc2ccc(cc2Cl)[C@H]1O` (some centres unmarked) [Van013], the MIC in assay [1] was determined as 4 µg/mL (≈ 2.12 µM); in assay [2] it was 2 µg/mL (≈ 1.06 µM).
With `CN[C@H](CC(C)C)C(=O)N[C@H]1C(=O)N[C@@H](CC(N)=O)C(=O)N[C@H]2C(=O)N[C@H]3C(=O)N[C@H](C(=O)N[C@H](C(=O)O)c4cc(O)c(CNCCCNC(=O)[C@H](O)[C@@H](O)[C@H](O)[C@H](O)CO)c(O)c4-c4cc3ccc4O)[C@H](O)c3ccc(c(Cl)c3)Oc3cc2cc(c3OC2O[C@H](CO)C(O)C(O)[C@H]2O[C@@H]2CC(C)[C@@H](O)C(C)(NCc3ccc(-c4ccc(Cl)cc4)cc3)C2)Oc2ccc(cc2Cl)[C@H]1O` (some centres unmarked) [Van014], the minimum inhibitory concentration (MIC) in assay [1] was determined as 0.125 µg/mL (≈ 0.0654 µM); in assay [2], 0.25 µg/mL (≈ 0.131 µM).
